According to US8778963B2, “Hydroxylamine and oxime substituted imidazoquinolines, imidazopyridines, and imidazonaphthyridines” (3M Innovative Properties Company, priority 2003, dated 2014):
Structures can show the parent of a compound that is named as a salt.

| melting point [°C] | Compound |
| --- | --- |
| 189 to 192 | CCOCc1nc2c(N)nc3ccccc3c2n1CCCC(C)=NOC (as salt: hydrochloride) [Example 35, 5-(4-Amino-2-ethoxymethyl-1H-imidazo[4,5-c]quinolin-1-yl)pentan-2-one O-methyloxime hydrochloride] |
| 184 to 186 | CCOCc1nc2c(N)nc3ccccc3c2n1CCCC(C)=NOCc1ccccc1 (as salt: hydrochloride) [Example 36, 5-(4-Amino-2-ethoxymethyl-1H-imidazo[4,5-c]quinolin-1-yl)pentan-2-one O-benzyloxime hydrochloride] |
| 138.5 to 140 | CCCc1nc2c(N)nc(C)c(C)c2n1CCCCN(O)C(=O)NC(C)C [Example 23, 1-[4-(4-Amino-6,7-dimethyl-2-propyl-1H-imidazo[4,5-c]pyridin-1-yl)butyl]-1-hydroxy-3-isopropylurea] |
| 159 to 160.5 | CCCc1nc2c(N)nc(C)c(C)c2n1CCCCN(O)C(=O)Nc1ccccc1 [Example 24, 1-[4-(4-Amino-6,7-dimethyl-2-propyl-1H-imidazo[4,5-c]pyridine-1-yl)butyl]-1-hydroxy-3-phenylurea] |
| 132 to 134 | CCCc1nc2c(N)nc(C)c(C)c2n1CCCCN(O)C(=O)c1ccccc1 [Example 25, N-Hydroxy-N-[4-(4-amino-6,7-dimethyl-2-propyl-1H-imidazo[4,5-c]pyridin-1-yl)-butyl]benzamide] |
| 127 to 128 | CCCc1nc2c(N)nc(C)c(C)c2n1CCCCN(OC)C(=O)OC(C)(C)C [Example 26, N-[4-(4-Amino-6,7-dimethyl-2-propyl-1H-imidazo[4,5-c]pyridin-1-yl)butyl]-N-[tert-butyl-carbamate]-O-methylhydroxylamine] |
| 136 to 137 | CCCc1nc2c(N)nc(C)c(C)c2n1CCCCN(OC)C(=O)c1ccccc1 [Example 27, N-Methoxy-N-[4-(4-amino-6,7-dimethyl-2-propyl-1H-imidazo[4,5-c]pyridin-1-yl)-butyl]benzamide] |
| 242 to 244 | CCCCc1nc2c(N)nc3ccccc3c2n1CCCC(=NO)c1ccccc1 [Example 28, 4-(4-Amino-2-butyl-1H-imidazo[4,5-c]quinolin-1-yl)-1-phenylbutan-1-one oxime] |
| 198 to 200 | CCCCc1nc2c(N)nc3ccccc3c2n1CCCC(=NOC)c1ccccc1 [Example 29, 4-(4-Amino-2-butyl-1H-imidazo[4,5-c]quinolin-1-yl)-1-phenylbutan-1-one O-methyloximie] |
| 264 to 266 | CC(CCCn1c(C)nc2c(N)nc3ccccc3c21)=NO [Example 30, 5-(4-Amino-2-methyl-1H-imidazo[4,5-c]quinolin-1-yl)pentan-2-one oxime] |
| 146 to 148 | CC(CCCn1c(C)nc2c(N)nc3ccccc3c21)=NOCc1ccccc1 [Example 31, 5-(4-Amino-2-methyl-1H-imidazo[4,5-c]quinolin-1-yl)pentan-2-one O-benzyloxime] |
| 158 to 161 | CON=C(C)CCCn1c(C)nc2c(N)nc3ccccc3c21 [Example 32, 5-(4-Amino-2-methyl-1H-imidazo[4,5-c]quinolin-1-yl)pentan-2-one O-methyloxime] |
| 157 to 159 | CCCCc1nc2c(N)nc3ccccc3c2n1CCCC(C)=NOC [Example 33, 5-(4-Amino-2-butyl-1H-imidazo[4,5-c]quinolin-1-yl)pentan-2-one O-methyloxime] |
| 220 to 223 | CCOCc1nc2c(N)nc3ccccc3c2n1CCCC(C)=NO [Example 34, 5-(4-Amino-2-ethoxymethyl-1H-imidazo[4,5-c]quinolin-1-yl)pentan-2-one oxime] |
| 207 to 209 | CCCc1nc2c(N)nc3ccccc3c2n1CCCC(CC(C)C)=NO [Example 37, 1-(4-Amino-2-propyl-1H-imidazo[4,5-c]quinolin-1-yl)-6-methylheptan-4-one oxime] |
| 113 to 115 | CCCCCCC(CCCn1c(CCC)nc2c(N)nc3ccccc3c21)=NO [Example 38, 1-(4-Amino-2-propyl-1H-imidazo[4,5-c]quinolin-1-yl)decan-4-one oxime] |
| 193 to 195 | CON=C(C)CC(C)(C)Cn1c(C)nc2c(N)nc3ccccc3c21 [Example 39, 5-(4-Amino-2-methyl-1H-imidazo[4,5-c]quinolin-1-yl)-4,4-dimethylpentan-2-one O-methyl-oxime] |

More lines, now with the values behind:

| Compound | melting point [°C] |
| --- | --- |
| CCCc1nc2c(N)nc3cccnc3c2n1CCCCN(OC)C(C)=O [Example 1, N-[4-(4-Amino-2-propyl-1H-imidazo[4,5-c]-1,5-naphthyridin-1-yl)butyl]-N-methoxyacetamide] | 155 to 156 |
| CCCc1nc2c(N)nc3cccnc3c2n1CCCCN(OC)C(=O)c1ccccc1 [Example 2, N-[4-(4-Amino-2-propyl-1H-imidazo[4,5-c][1,5]naphthyridin-1-yl)butyl]-N-methoxybenzamide] | 125 to 127 |
| CCCc1nc2c(N)nc3cccnc3c2n1CCCCN(OC)C(=O)NC(C)C [Example 3, N-[4-(4-Amino-2-propyl-1H-imidazo[4,5-c][1,5]naphthyridin-1-yl)butyl]-N′-isopropyl-N-methoxyurea] | 161 to 162 |
| CCCCc1nc2c(N)nc3cccnc3c2n1CCC/C(C)=N/OC [Example 4, 5-(4-Amino-2-butyl-1H-imidazo[4,5-c][1,5]naphthyridin-1-yl)-pentan-2-one O-methyloxine] | 132 to 134 |
| CCCc1nc2c(N)nc(C)c(C)c2n1CCC/C(C)=N/OC [Example 5, 5-(4-Amino-6,7-dimethyl-2-propyl-1H-imidazo[4,5-c]pyridine-1-yl)pentan-2-one O-methyloxime] | 144 to 145.5 |
| CCCc1nc2c(N)nc3ccccc3c2n1CCCCN(OC)C(C)=O [Example 6, N-[4-(4-Amino-2-propyl-1H-imidazo[4,5-c]quinolin-1-yl)butyl]-N-methoxyacetamide] | 138 to 140 |
| CCCc1nc2c(N)nc3ccccc3c2n1CCCCN(OC)C(N)=O [Example 7, 1-[4-(4-Amino-2-propyl-1H-imidazo[4,5-c]quinolin-1-yl)butyl]-1-methoxyurea] | 179 to 181 |
| CCCc1nc2c(N)nc3ccccc3c2n1CCCCN(OC)S(C)(=O)=O [Example 8, N-[4-(4-Amino-2-propyl-1H-imidazo[4,5-c]quinolin-1-yl)butyl]-N-methoxymethanesulfonamide] | 178 to 188 |
| CCCc1nc2c(N)nc3ccccc3c2n1CCCCN(OC)C(=O)Nc1ccccc1 [Example 9] | 164 to 166 |
| CCCc1nc2c(N)nc3ccccc3c2n1CCCC(C)N(OC)C(C)=O (stereo not drawn) [Example 10, N-[4-(4-Amino-2-propyl-1H-imidazo[4,5-c]quinolin-1-yl)-1-methylbutyl]-N-methoxy-acetamide] | 140 to 142 |
| CCCc1nc2c(N)nc3ccccc3c2n1CCCC(C)N(OC)C(=O)Nc1ccccc1 (stereo not drawn) [Example 11, 1-[4-(4-Amino-2-propyl-1H-imidazo[4,5-c]quinolin-1-yl)-1-methylbutyl]-1-methoxy-3-phenylurea] | 140 to 142 |
| CCCc1nc2c(N)nc3ccccc3c2n1CCCC(C)N(OC)C(=O)NCC (stereo not drawn) [Example 12, 1-[4-(4-Amino-2-propyl-1H-imidazo[4,5-c]quinolin-1-yl)-1-methylbutyl]-3-ethyl-1-methoxyurea] | 193 to 194 |
| CCOCc1nc2c(N)nc3ccccc3c2n1CCCC(C)N(OC)S(C)(=O)=O (stereo not drawn) [Example 13, N-[4-(4-Amino-2-ethoxymethyl-1H-imidazo[4,5-c]quinolin-1-yl)-1-methylbutyl]-N-methoxymethanesulfonamide] | 146 to 148 |
| CCCc1nc2c(N)nc(C)c(C)c2n1CCCCN(O)C(=O)OC(C)(C)C [Example 14, N-[4-(4-Amino-6,7-dimethyl-2-propyl-1H-imidazo[4,5-c]pyridin-1-yl)butyl]-N-[tert-butyl carbamate]hydroxylamine] | 157 to 158.5 |
| CCCc1nc2c(N)nc(C)c(C)c2n1CCCCN(O)C(C)=O [Example 15, N-[4-(4-Amino-6,7-dimethyl-2-propyl-1-imidazo[4,5-c]pyridin-1-yl)butyl]-N-hydroxyacetamide] | 164 to 166 |
| CCCc1nc2c(N)nc3ccccc3c2n1CCCC(C)N(OC)C(=O)NC1CCCC1 (stereo not drawn) [Example 16, 1-[4-(4-Amino-2-propyl-1H-imidazo[4,5-c]quinolin-1-yl)-1-methylbutyl]-N-methoxy-3-cyclopentylurea] | 182 to 184 |
| CCCc1nc2c(N)nc3cc(-c4ccccc4)ccc3c2n1CCCC(C)=NOC [Example 17, 5-(4-Amino-7-phenyl-2-propyl-1H-imidazo[4,5-c]quinolin-1-yl)pentan-2-one O-methyloxime] | 191 to 192 |
| CCCc1nc2c(N)nc3cc(-c4ccccc4)ccc3c2n1CCCC(C)N(OC)C(=O)NC(C)C (stereo not drawn) [Example 18, 1-[4-(4-Amino-7-phenyl-2-propyl-1H-imidazo[4,5-c]quinolin-1-yl)-1-methylbutyl]-3-isopropyl-1-methoxyurea] | 101 to 103 |
| CCCc1nc2c(N)nc3cccnc3c2n1CCCCN(OC)C(=O)Nc1ccccc1 [Example 19, N-[4-(4-Amino-2-propyl-1H-imidazo[4,5-c][1,5]naphthyridin-1-yl)butyl]-N-methoxy-N′-phenylurea] | 155 to 156 |
| CCOCc1nc2c(N)nc3cccnc3c2n1CCCCN(OC)C(C)=O [Example 20, N-[4-(4-amino-2-ethoxymethyl-1H-imidazo[4,5-c][1,5]naphthyridin-1-yl)butyl]-N-Methoxyacetamide] | 180 to 181 |
| CCOCc1nc2c(N)nc3cccnc3c2n1CCCCN(OC)C(=O)NC(C)C [Example 21, 1-[4-(4-Amino-2-ethoxymethyl-1H-imidazo[4,5-c][1,5]naphthyridin-1-yl)butyl]-3-isopropyl-1-methoxyurea] | 146 to 147 |
| CCCc1nc2c(N)nc3cccnc3c2n1CCCC(C)N(OC)C(C)=O (stereo not drawn) [Example 22, N-Methoxy-N-[4-(4-amino-2-propyl-1H-imidazo[4,5-c][1,5]naphthyridin-1-yl)1-methyl-butyl]acetamide] | 158 to 159 |
